According to ChEMBL document CHEMBL2074504, “Inhibition of P-glycoprotein-mediated drug transport: A unifying mechanism to explain the interaction between digoxin and quinidine [seecomments]” (Circulation, 1999):

What was measured:
[1] = target: ATP-dependent translocase ABCB1 (Homo sapiens, UniProt P08183); test: TP_TRANSPORTER: transepithelial transport (basal to apical) in Caco-2 cells; type: functional, cell-based
[2] = target: T1, ATP-dependent translocase ABCB1 (Mus musculus, UniProt P21447); test: TP_TRANSPORTER: increase in spleen concentration in mdr1a(-/-) mouse; type: functional, organism-based; conditions: in vivo
T1 sequence (P21447 whole entry): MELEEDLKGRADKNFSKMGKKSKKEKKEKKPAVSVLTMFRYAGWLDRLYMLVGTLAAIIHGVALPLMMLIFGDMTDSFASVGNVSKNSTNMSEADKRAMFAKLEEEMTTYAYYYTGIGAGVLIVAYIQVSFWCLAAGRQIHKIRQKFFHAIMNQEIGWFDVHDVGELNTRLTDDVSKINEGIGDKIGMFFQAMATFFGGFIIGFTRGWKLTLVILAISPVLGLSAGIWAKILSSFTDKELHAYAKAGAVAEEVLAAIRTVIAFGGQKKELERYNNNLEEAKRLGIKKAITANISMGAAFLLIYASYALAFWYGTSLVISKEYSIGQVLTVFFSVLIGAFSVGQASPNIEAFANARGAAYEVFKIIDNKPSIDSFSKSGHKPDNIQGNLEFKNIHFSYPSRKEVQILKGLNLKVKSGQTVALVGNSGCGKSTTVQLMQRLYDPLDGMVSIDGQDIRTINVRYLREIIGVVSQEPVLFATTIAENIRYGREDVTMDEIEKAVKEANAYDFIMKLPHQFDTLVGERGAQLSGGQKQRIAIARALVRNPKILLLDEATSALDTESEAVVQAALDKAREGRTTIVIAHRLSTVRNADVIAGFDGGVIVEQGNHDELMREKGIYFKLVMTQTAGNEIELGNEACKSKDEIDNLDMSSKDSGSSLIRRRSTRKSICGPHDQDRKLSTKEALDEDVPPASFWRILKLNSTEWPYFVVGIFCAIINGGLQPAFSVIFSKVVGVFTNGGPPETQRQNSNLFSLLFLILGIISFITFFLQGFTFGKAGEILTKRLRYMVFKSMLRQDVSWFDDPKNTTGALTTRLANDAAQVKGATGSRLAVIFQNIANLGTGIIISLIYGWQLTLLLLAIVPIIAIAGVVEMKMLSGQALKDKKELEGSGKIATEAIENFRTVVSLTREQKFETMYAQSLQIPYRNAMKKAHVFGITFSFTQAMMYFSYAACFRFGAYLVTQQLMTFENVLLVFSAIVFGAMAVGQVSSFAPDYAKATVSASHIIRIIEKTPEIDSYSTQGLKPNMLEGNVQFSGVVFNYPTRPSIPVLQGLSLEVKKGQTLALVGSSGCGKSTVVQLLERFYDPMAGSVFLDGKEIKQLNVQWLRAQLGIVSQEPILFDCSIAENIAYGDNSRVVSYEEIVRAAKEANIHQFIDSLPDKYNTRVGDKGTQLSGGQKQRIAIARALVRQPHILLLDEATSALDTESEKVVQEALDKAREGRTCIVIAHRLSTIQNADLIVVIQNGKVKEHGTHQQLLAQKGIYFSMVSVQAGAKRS

[3] = target: T1, ATP-dependent translocase ABCB1; test: TP_TRANSPORTER: increase in small intestine concentration in mdr1a(-/-) mouse; type: functional, organism-based; conditions: in vivo
[4] = target: T1, ATP-dependent translocase ABCB1; test: TP_TRANSPORTER: increase in plasma concentration in mdr1a(-/-) mouse; type: functional, organism-based; conditions: in vivo
[5] = target: T1, ATP-dependent translocase ABCB1; test: TP_TRANSPORTER: increase in lung concentration in mdr1a(-/-) mouse; type: functional, organism-based; conditions: in vivo
[6] = target: T1, ATP-dependent translocase ABCB1; test: TP_TRANSPORTER: increase in liver concentration in mdr1a(-/-) mouse; type: functional, organism-based; conditions: in vivo
[7] = target: T1, ATP-dependent translocase ABCB1; test: TP_TRANSPORTER: increase in kidney concentration in mdr1a(-/-) mouse; type: functional, organism-based; conditions: in vivo
[8] = target: T1, ATP-dependent translocase ABCB1; test: TP_TRANSPORTER: increase in brain concentration in mdr1a(-/-) mouse; type: functional, organism-based; conditions: in vivo

Measured: Activity

Chain of ATP-dependent translocase ABCB1 (Homo sapiens, UniProt P08183) (P08183 whole entry): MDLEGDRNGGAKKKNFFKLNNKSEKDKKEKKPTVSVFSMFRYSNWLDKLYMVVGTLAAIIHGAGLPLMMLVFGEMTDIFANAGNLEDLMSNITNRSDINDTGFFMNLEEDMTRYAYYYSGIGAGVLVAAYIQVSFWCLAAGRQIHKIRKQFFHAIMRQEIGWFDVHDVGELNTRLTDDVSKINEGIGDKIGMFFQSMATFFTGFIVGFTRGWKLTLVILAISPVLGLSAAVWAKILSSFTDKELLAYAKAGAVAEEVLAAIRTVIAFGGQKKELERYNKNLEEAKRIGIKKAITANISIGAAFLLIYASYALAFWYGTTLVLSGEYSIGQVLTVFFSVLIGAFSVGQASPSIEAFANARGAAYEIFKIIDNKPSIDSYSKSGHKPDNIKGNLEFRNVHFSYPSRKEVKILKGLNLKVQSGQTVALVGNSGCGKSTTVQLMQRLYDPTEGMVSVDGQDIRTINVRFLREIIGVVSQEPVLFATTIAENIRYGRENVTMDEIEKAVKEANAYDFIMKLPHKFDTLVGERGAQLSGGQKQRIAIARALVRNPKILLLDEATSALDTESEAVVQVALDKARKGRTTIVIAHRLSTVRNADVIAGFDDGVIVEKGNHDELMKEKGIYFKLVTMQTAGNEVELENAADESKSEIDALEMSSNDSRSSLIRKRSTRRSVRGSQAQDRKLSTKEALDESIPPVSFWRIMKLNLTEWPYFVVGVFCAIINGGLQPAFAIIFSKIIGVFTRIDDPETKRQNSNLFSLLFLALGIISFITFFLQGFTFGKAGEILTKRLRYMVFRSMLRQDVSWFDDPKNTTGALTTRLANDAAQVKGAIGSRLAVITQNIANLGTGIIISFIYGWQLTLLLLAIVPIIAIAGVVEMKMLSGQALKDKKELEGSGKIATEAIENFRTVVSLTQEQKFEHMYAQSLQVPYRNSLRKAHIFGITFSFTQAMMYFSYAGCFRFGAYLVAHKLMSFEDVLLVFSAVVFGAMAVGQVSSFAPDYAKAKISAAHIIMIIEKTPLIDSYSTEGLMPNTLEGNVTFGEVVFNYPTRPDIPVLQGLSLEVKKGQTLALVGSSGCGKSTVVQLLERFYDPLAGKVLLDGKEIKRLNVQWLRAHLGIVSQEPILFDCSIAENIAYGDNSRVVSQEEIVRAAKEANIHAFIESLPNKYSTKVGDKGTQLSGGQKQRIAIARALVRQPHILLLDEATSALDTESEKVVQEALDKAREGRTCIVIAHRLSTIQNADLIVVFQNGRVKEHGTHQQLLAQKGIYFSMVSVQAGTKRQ

C[C@H]1O[C@@H](O[C@H]2[C@@H](O)C[C@H](O[C@H]3[C@@H](O)C[C@H](O[C@H]4CC[C@@]5(C)[C@H](CC[C@@H]6[C@@H]5C[C@@H](O)[C@]5(C)[C@@H](C7=CC(=O)OC7)CC[C@]65O)C4)O[C@@H]3C)O[C@@H]2C)C[C@H](O)[C@@H]1O [DIGOXIN]
substrate [+]: [1]

C=C[C@H]1C[N@@]2CC[C@H]1C[C@@H]2[C@@H](O)c1ccnc2ccc(OC)cc12 [QUINIDINE]
not listed: [1]
substrate [+]: all other assays above
